Test system: Sprague-Dawley male rats
Assay: Treadmill test using young rat (maximum running time)
Assay type: in vivo
Details: reduced coenzyme Q10 100 mg/kg, lipoic acid 30 mg/kg; for extension of the maximum running time (after the sample administration relative to before the administration), Average: Sprague-Dawley male rats 7 to 10 week old, oral in 0.5% CMC-Na, before vs three hours after administration; for extension of the maximum running time, significance: single agents: before vs after administration, combination: compared to control group, oral, three hours after administration
Method: Using Sprague-Dawley male rats (7 to 10 week old, n=20), anti-fatigue effects brought about by reduced coenzyme Q10 alone (about 2% of oxidized coenzyme Q10 included), lipoic acid alone, and combination use of reduced coenzyme Q10 and lipoic acid were evaluated with a treadmill. In the test, rats were run at a speed of 10 m/min using a treadmill apparatus (model NK-73-4 made by Natume Seisakusho Co., Ltd.), and the speed was increased stepwise, by 5 m/min every 3 min, and the time when the rats became unable to run (maximum running time) was measured.
As substances to be tested, 0.5% sodium carboxymethylcellulose (CMC-Na) aqueous solutions of reduced coenzyme Q10 (about 2% oxidized coenzyme Q10 included) or lipoic acid (α-lipoic acid (manufactured by Tokyo Chemical Industry Co., Ltd.)) were each prepared and the solutions were orally administered to rats at a dose of 100 mg/kg for reduced coenzyme Q10 or at a dose of 30 mg/kg for lipoic acid. Rats were divided into four groups of a solvent administered group, reduced coenzyme Q10 only administered group, lipoic acid only administered group, and a reduced coenzyme Q10 and lipoic acid combined group (reduced coenzyme Q10 and lipoic acid were administered almost simultaneously). The maximum running time was measured before and three hours after the administration and an extension of the maximum running time (after the sample administration relative to before the administration) was calculated. A 0.5% CMC-Na aqueous solution was administered to the control group.

| SMILES | extension of the maximum running time (after the sample administration relative to before the administration), Average | extension of the maximum running time, significance |
| --- | --- | --- |
| O=C(O)CCCCC1CCSS1 (stereo not shown) [Lipoic acid, 1,2-dithioran-3-pentanoic acid] | 7.3 s | no significant extension |
| COc1c(O)c(C)c(C/C=C(\C)CC/C=C(\C)CC/C=C(\C)CC/C=C(\C)CC/C=C(\C)CC/C=C(\C)CC/C=C(\C)CC/C=C(\C)CC/C=C(\C)CCC=C(C)C)c(O)c1OC [Reduced coenzyme Q10, reduced coenzyme Q10] | 17.5 s | no significant extension |

— US20090226408A1, “ANTI-FATIGUE COMPOSITION” (KANEKA CORPORATION, priority 2005, published 2009)
